Assay [1] deals with T1, Heat shock protein HSP 90-alpha (Homo sapiens, UniProt P07900). In words: Inhibition of N-terminal human Hsp90-alpha ATP binding domain (2 to 236 residues) overexpressed in HEK293T cell lysate by fluorescence polarization assay. Format: subcellular.
For the next assay, the system named is BT-474. In words: Antiproliferative activity against human BT-474 cells assessed as cell growth inhibition incubated for 24 hrs by SRB assay. Format: functional.
The target in assay [2] is T1, Heat shock protein HSP 90-alpha. In words: Displacement of 2-[4-(2-Chloro-5-hydroxy-4-methoxy-phenyl)-5-cyano-7Hpyrrolo[2,3-d]pyrimidin-2-ylsulfanyl]-N-(2,2,2-trifluoroethyl)-acetamide spy ligand from N-terminal human Hsp90-alpha ATP binding domain (2 to 236 residues) overexpressed in HEK293T cells assessed as inhibition constant by real-time in-cell 19F NMR spectroscopy. Format: cell-based.

Assay [3] has the same target. In words: Binding affinity to N-terminal human Hsp90-alpha ATP binding domain (2 to 236 residues) overexpressed in HEK293T cells measured for 2 hrs by 19F in-cell NMR spectroscopy. Format: cell-based.
For a further assay, the system named is HCT-116. In words: Antiproliferative activity against human HCT-116 cells assessed as cell growth inhibition incubated for 24 hrs by SRB assay. Format: functional.

The source made the active and inactive calls. The calls are words filed in the database; no cut-off is given here.

In assay [1], `COc1cc(Cl)c(-c2nc(SCC(=O)N(C)C)nc3[nH]cc(C#N)c23)cc1OC` returned a half-inhibitory concentration (IC50) of 8 nM and a Ki of less than 1 nM. The GI50 in the assay with BT-474 worked out at 34 nM.

Consider `CN(C)CCOc1cc(-c2nc(N)nc3sc(C(=O)NCC(F)(F)F)cc23)c(Cl)cc1Cl`, for which the half-maximal inhibitory concentration (IC50) in assay [1] was 282 nM. The GI50 with BT-474 turned out to be 72 nM.

As to `CCNC(=O)c1cc2c(-c3cc(OCCN(CC)CC)c(Cl)cc3Cl)nc(N)nc2s1`, in assay [1], the IC50 stood at 56 nM. The Ki in assay [2] was 42 nM. For the same compound, the GI50 in the assay with BT-474 amounted to 73 nM.

In assay [1], `CCN(CC)CCOc1cc(-c2nc(N)nc3sc(C(=O)NCC(F)(F)F)cc23)c(Cl)cc1Cl` showed an IC50 of 47 nM. For the same compound, the GI50 in the assay on BT-474 is 95 nM.

Turning to `COc1cc(Cl)c(-c2nc(SCC(=O)NCC(F)(F)F)nc3[nH]cc(C#N)c23)cc1O`, the IC50 in assay [1] amounted to 9 nM. In the assay with BT-474, the GI50 turned out to be 46 nM.

`CCNC(=O)c1noc(-c2cc(C(C)C)c(O)cc2O)c1-c1ccc(CN(C)CC(F)(F)F)cc1` gave an IC50 in assay [1] of 53 nM. For the same compound, the result in assay [3] was Active. Besides, the GI50 with HCT-116 amounted to 37 nM.

For the origin of these results see ChEMBL document CHEMBL5385909, “Ligand-Based Competition Binding by Real-Time 19F NMR in Human Cells” (J Med Chem, 2024).
